From the supplement of paper PMC10307832 come the findings set out here.

The subject of the first assay is SK-MES-1. Nature of the assay: relative viability (nuclei count vs DMSO), 5 days (fraction); higher = more cells survive. To be noted: first compound 2 µM. The gist of the method:
(§1)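 Dosing by pin tool came one day after lung cancer cell lines were seeded in 1536-well plates, using either one drug or a fixed anchor-drug dose plus five library-drug doses (not always all listed) in √10 steps. After 5 days, nuclei were counted on 4× images. Relative viability is treated-well nuclei count divided by vehicle-well nuclei count, and values are medians of duplicate plates.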
With `COCC1(CO)C(=O)C2CCN1CC2` (stereo not drawn) [PRIMA-1MET] + CC(=O)Nc1cccc(-n2c(=O)n(C3CC3)c(=O)c3c(Nc4ccc(I)cc4F)n(C)c(=O)c(C)c32)c1 [Trametinib] (partner 0.02 µM), the relative viability is 0.549.

`COCC1(CO)C(=O)C2CCN1CC2` (stereo not drawn) [PRIMA-1MET] + Nc1ncn([C@H]2C[C@H](O)[C@@H](CO)O2)c(=O)n1 [Decitabine] (partner 2 µM): the relative viability was determined as 0.376.

Compound `COCC1(CO)C(=O)C2CCN1CC2` (stereo not drawn) [PRIMA-1MET] + O=C(c1cc(Cc2n[nH]c(=O)c3ccccc23)ccc1F)N1CCN(C(=O)C2CC2)CC1 [Olaparib] (partner 8 µM) gave a relative viability of 0.779.

The assay is the same for the next values; noted with them: first compound 6.325 µM.
As to `COCC1(CO)C(=O)C2CCN1CC2` (stereo not drawn) [PRIMA-1MET] + N=C(N)NC(=N)NCCc1ccccc1 [Phenformin] (partner 250 µM), the relative viability was found to be 0.663.

`COCC1(CO)C(=O)C2CCN1CC2` (stereo not drawn) [PRIMA-1MET] + Nc1nc2[nH]cc(CCc3ccc(C(=O)N[C@@H](CCC(=O)O)C(=O)O)cc3)c2c(=O)[nH]1 [Pemetrexed] (partner 0.2 µM) came in with a relative viability of 0.92.

In the case of `COCC1(CO)C(=O)C2CCN1CC2` (stereo not drawn) [PRIMA-1MET] + CC(=O)Nc1cccc(-n2c(=O)n(C3CC3)c(=O)c3c(Nc4ccc(I)cc4F)n(C)c(=O)c(C)c32)c1 [Trametinib] (partner 0.02 µM), the relative viability was determined as 0.624.

As for `COCC1(CO)C(=O)C2CCN1CC2` (stereo not drawn) [PRIMA-1MET] + Nc1ncn([C@H]2C[C@H](O)[C@@H](CO)O2)c(=O)n1 [Decitabine] (partner 2 µM), the relative viability turned out to be 0.339.

Consider `COCC1(CO)C(=O)C2CCN1CC2` (stereo not drawn) [PRIMA-1MET] + O=C(c1cc(Cc2n[nH]c(=O)c3ccccc23)ccc1F)N1CCN(C(=O)C2CC2)CC1 [Olaparib] (partner 8 µM), for which the relative viability turned out to be 0.622.

The assay is the same for the next values; noted with them: first compound 20 µM.
On to `COCC1(CO)C(=O)C2CCN1CC2` (stereo not drawn) [PRIMA-1MET] + N=C(N)NC(=N)NCCc1ccccc1 [Phenformin] (partner 250 µM), for which the relative viability came out at 0.615.

`COCC1(CO)C(=O)C2CCN1CC2` (stereo not drawn) [PRIMA-1MET] + Nc1nc2[nH]cc(CCc3ccc(C(=O)N[C@@H](CCC(=O)O)C(=O)O)cc3)c2c(=O)[nH]1 [Pemetrexed] (partner 0.2 µM): the relative viability came to 0.929.

`COCC1(CO)C(=O)C2CCN1CC2` (stereo not drawn) [PRIMA-1MET] + CC(=O)Nc1cccc(-n2c(=O)n(C3CC3)c(=O)c3c(Nc4ccc(I)cc4F)n(C)c(=O)c(C)c32)c1 [Trametinib] (partner 0.02 µM): the relative viability is 0.592.

For `COCC1(CO)C(=O)C2CCN1CC2` (stereo not drawn) [PRIMA-1MET] + Nc1ncn([C@H]2C[C@H](O)[C@@H](CO)O2)c(=O)n1 [Decitabine] (partner 2 µM), the relative viability amounted to 0.337.

In turn, `COCC1(CO)C(=O)C2CCN1CC2` (stereo not drawn) [PRIMA-1MET] + O=C(c1cc(Cc2n[nH]c(=O)c3ccccc23)ccc1F)N1CCN(C(=O)C2CC2)CC1 [Olaparib] (partner 8 µM) had a relative viability of 0.622.

For another assay, the system named is EKVX. The assay is described as above. To be noted: first compound 0.2 µM. The gist of the method:
as §1
For the compound `COCC1(CO)C(=O)C2CCN1CC2` (stereo not drawn) [PRIMA-1MET] + N=C(N)NC(=N)NCCc1ccccc1 [Phenformin] (partner 250 µM), the relative viability came out at 0.219.

Turning to `COCC1(CO)C(=O)C2CCN1CC2` (stereo not drawn) [PRIMA-1MET] + Nc1nc2[nH]cc(CCc3ccc(C(=O)N[C@@H](CCC(=O)O)C(=O)O)cc3)c2c(=O)[nH]1 [Pemetrexed] (partner 0.2 µM), the relative viability came out at 0.448.

Compound `COCC1(CO)C(=O)C2CCN1CC2` (stereo not drawn) [PRIMA-1MET] + CC(=O)Nc1cccc(-n2c(=O)n(C3CC3)c(=O)c3c(Nc4ccc(I)cc4F)n(C)c(=O)c(C)c32)c1 [Trametinib] (partner 0.02 µM) had a relative viability of 0.344.

`COCC1(CO)C(=O)C2CCN1CC2` (stereo not drawn) [PRIMA-1MET] + Nc1ncn([C@H]2C[C@H](O)[C@@H](CO)O2)c(=O)n1 [Decitabine] (partner 2 µM) displayed a relative viability of 0.407.

Turning to `COCC1(CO)C(=O)C2CCN1CC2` (stereo not drawn) [PRIMA-1MET] + O=C(c1cc(Cc2n[nH]c(=O)c3ccccc23)ccc1F)N1CCN(C(=O)C2CC2)CC1 [Olaparib] (partner 8 µM), the relative viability worked out at 1.01.

Staying with this assay, now noted: first compound 0.6325 µM.
As for `COCC1(CO)C(=O)C2CCN1CC2` (stereo not drawn) [PRIMA-1MET] + N=C(N)NC(=N)NCCc1ccccc1 [Phenformin] (partner 250 µM), the relative viability worked out at 0.221.

The same assay, now with this note: first compound 2 µM.
`COCC1(CO)C(=O)C2CCN1CC2` (stereo not drawn) [PRIMA-1MET] + Nc1nc2[nH]cc(CCc3ccc(C(=O)N[C@@H](CCC(=O)O)C(=O)O)cc3)c2c(=O)[nH]1 [Pemetrexed] (partner 0.2 µM) came in with a relative viability of 0.385.

Compound `COCC1(CO)C(=O)C2CCN1CC2` (stereo not drawn) [PRIMA-1MET] + CC(=O)Nc1cccc(-n2c(=O)n(C3CC3)c(=O)c3c(Nc4ccc(I)cc4F)n(C)c(=O)c(C)c32)c1 [Trametinib] (partner 0.02 µM) displayed a relative viability of 0.283.

With `COCC1(CO)C(=O)C2CCN1CC2` (stereo not drawn) [PRIMA-1MET] + Nc1ncn([C@H]2C[C@H](O)[C@@H](CO)O2)c(=O)n1 [Decitabine] (partner 2 µM), the relative viability amounted to 0.277.

In the case of `COCC1(CO)C(=O)C2CCN1CC2` (stereo not drawn) [PRIMA-1MET] + O=C(c1cc(Cc2n[nH]c(=O)c3ccccc23)ccc1F)N1CCN(C(=O)C2CC2)CC1 [Olaparib] (partner 8 µM), the relative viability was found to be 0.694.

The assay is the same for the next values; noted with them: first compound 6.325 µM.
In turn, `COCC1(CO)C(=O)C2CCN1CC2` (stereo not drawn) [PRIMA-1MET] + N=C(N)NC(=N)NCCc1ccccc1 [Phenformin] (partner 250 µM) displayed a relative viability of 0.217.

`COCC1(CO)C(=O)C2CCN1CC2` (stereo not drawn) [PRIMA-1MET] + Nc1nc2[nH]cc(CCc3ccc(C(=O)N[C@@H](CCC(=O)O)C(=O)O)cc3)c2c(=O)[nH]1 [Pemetrexed] (partner 0.2 µM): the relative viability came out at 0.447.

`COCC1(CO)C(=O)C2CCN1CC2` (stereo not drawn) [PRIMA-1MET] + CC(=O)Nc1cccc(-n2c(=O)n(C3CC3)c(=O)c3c(Nc4ccc(I)cc4F)n(C)c(=O)c(C)c32)c1 [Trametinib] (partner 0.02 µM): the relative viability turned out to be 0.233.

`COCC1(CO)C(=O)C2CCN1CC2` (stereo not drawn) [PRIMA-1MET] + Nc1ncn([C@H]2C[C@H](O)[C@@H](CO)O2)c(=O)n1 [Decitabine] (partner 2 µM) displayed a relative viability of 0.336.

`COCC1(CO)C(=O)C2CCN1CC2` (stereo not drawn) [PRIMA-1MET] + O=C(c1cc(Cc2n[nH]c(=O)c3ccccc23)ccc1F)N1CCN(C(=O)C2CC2)CC1 [Olaparib] (partner 8 µM) displayed a relative viability of 0.825.

Staying with this assay, now noted: first compound 20 µM.
Turning to `COCC1(CO)C(=O)C2CCN1CC2` (stereo not drawn) [PRIMA-1MET] + N=C(N)NC(=N)NCCc1ccccc1 [Phenformin] (partner 250 µM), the relative viability was found to be 0.222.

With `COCC1(CO)C(=O)C2CCN1CC2` (stereo not drawn) [PRIMA-1MET] + Nc1nc2[nH]cc(CCc3ccc(C(=O)N[C@@H](CCC(=O)O)C(=O)O)cc3)c2c(=O)[nH]1 [Pemetrexed] (partner 0.2 µM), the relative viability came out at 0.385.

The compound `COCC1(CO)C(=O)C2CCN1CC2` (stereo not drawn) [PRIMA-1MET] + CC(=O)Nc1cccc(-n2c(=O)n(C3CC3)c(=O)c3c(Nc4ccc(I)cc4F)n(C)c(=O)c(C)c32)c1 [Trametinib] (partner 0.02 µM) yielded a relative viability of 0.243.

As to `COCC1(CO)C(=O)C2CCN1CC2` (stereo not drawn) [PRIMA-1MET] + Nc1ncn([C@H]2C[C@H](O)[C@@H](CO)O2)c(=O)n1 [Decitabine] (partner 2 µM), the relative viability worked out at 0.199.

For `COCC1(CO)C(=O)C2CCN1CC2` (stereo not drawn) [PRIMA-1MET] + O=C(c1cc(Cc2n[nH]c(=O)c3ccccc23)ccc1F)N1CCN(C(=O)C2CC2)CC1 [Olaparib] (partner 8 µM), the relative viability is 0.403.
